Activity calls are given as the source filed them. The rule behind the calls is not given here.
Assays:
[1] = target: T1, Pancreatic triacylglycerol lipase (Sus scrofa) (UniProt P00591); settings: 1 uM
T1 sequence (whole entry): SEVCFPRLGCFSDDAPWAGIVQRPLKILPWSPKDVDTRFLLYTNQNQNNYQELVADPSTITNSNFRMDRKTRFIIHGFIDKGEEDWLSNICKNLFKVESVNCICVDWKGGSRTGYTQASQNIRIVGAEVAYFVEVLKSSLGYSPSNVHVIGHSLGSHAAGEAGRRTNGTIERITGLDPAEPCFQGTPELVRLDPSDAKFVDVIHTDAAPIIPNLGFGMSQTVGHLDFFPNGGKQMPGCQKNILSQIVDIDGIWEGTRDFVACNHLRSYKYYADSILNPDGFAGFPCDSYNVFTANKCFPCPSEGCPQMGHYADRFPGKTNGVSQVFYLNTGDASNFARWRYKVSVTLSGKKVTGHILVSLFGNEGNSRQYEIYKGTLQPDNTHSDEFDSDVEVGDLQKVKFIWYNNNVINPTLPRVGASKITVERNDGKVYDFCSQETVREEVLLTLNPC
Description: Inhibition of porcine pancreatic lipase using p-nitrophenylbutyrate as substrate at 1 uM preincubated for 15 mins prior substrate addition measured after 15 mins by spectrophotometry

[2] = target: T2, Pancreatic triacylglycerol lipase (Sus scrofa, UniProt P00591); test: Inhibition of porcine pancreatic lipase using p-nitrophenylbutyrate as substrate preincubated for 15 mins prior substrate addition measured after 15 mins by spectrophotometry
T2 sequence (P00591 whole entry): T1 sequence (whole entry)

3T3-L1 [3] = test: Antiadipogenic activity in mouse 3T3L1 cells assessed as cell differentiation measuring inhibition of fat accumulation at 100 uM after 8 days by oil red O-staining based spectrophotometry relative to control; assay type: functional; settings: 3T3-L1, 192 h
[4] = target: T1, Pancreatic triacylglycerol lipase (Sus scrofa); test: Inhibition of porcine pancreatic lipase using p-nitrophenylbutyrate as substrate at 100 uM preincubated for 15 mins prior substrate addition measured after 15 mins by spectrophotometry
3T3-L1 [5] = test: Antiadipogenic activity in mouse 3T3L1 cells assessed as cell differentiation measuring fat accumulation at 100 uM after 8 days by oil red O-staining based spectrophotometry relative to control; assay type: functional
[6] = target: T1, Pancreatic triacylglycerol lipase (Sus scrofa); test: Non-competitive inhibition of porcine pancreatic lipase using p-nitrophenylbutyrate as substrate preincubated for 15 mins prior substrate addition measured after 15 mins by Lineweaver-Burk plot analysis

Structure (SMILES)	inhibition [1]	IC50 [2]	inhibition at 100 µM (3T3-L1 [3])	inhibition [4]	Activity (3T3-L1 [5])	inhibition [6]
CCCCCCCCCCC[C@@H](C[C@@H]1OC(=O)[C@H]1CCCCCC)OC(=O)[C@H](CC(C)C)NC=O	60.4%					
COc1cc(O)ccc1CCCc1ccc(O)cc1 [BROUSSONIN B]		75.4 µM	48%	40.4%		
Oc1ccc(C2CCc3ccc(O)cc3O2)cc1 (stereo not drawn)		85.1 µM		55.6%		
COc1ccc(CCCc2ccc(O)cc2)c(O)c1 [BROUSSONIN A]		98.7 µM		50.7%		
COc1ccc(-c2oc3cc(O)ccc3c(=O)c2O)cc1O		> 100 µM		38.2%		
COc1ccc(-c2oc3cc(O)ccc3c(=O)c2O)cc1		> 100 µM		21.8%		
COc1ccc(C2CCc3ccc(O)cc3O2)cc1O (stereo not drawn)		> 100 µM		24.8%		
COC1=CC(=O)C=CC1(O)CCCc1ccc(O)cc1 (stereo not drawn) [BROUSSONONE A]		28.4 µM		71.9%	66%	Active

From ChEMBL document CHEMBL2016461, “A new pancreatic lipase inhibitor from Broussonetia kanzinoki” (Bioorg Med Chem Lett, 2012)
